Results on 3 compounds are retold here after publication PMC7114321 (Antiviral Research, 2005).

Structures are written as SMILES. pIC50: −log10 of the molar value. Converted amounts (≈) assume the structure as drawn. Bounds are passed on as bounds.

One data set has as its system Sindbis virus. The note with it: cited from earlier work.
The nature of the next data set: in vitro. The conditions noted are these: African green monkey, CC50 of cell death.

As a reminder, the CC50 is the concentration giving 50% cytotoxicity. Low values mean harm at low concentration, high ones better tolerance by the cells. As for `C=CCC(=NOS(=O)(=O)O)S[C@@H]1O[C@H](CO)[C@@H](O)[C@H](O)[C@H]1O` (stereo in doubt) [Sinigrin], in the data set on Vero cells, the CC50 was > 10000 µM and the “CC50 of cell death” value is reported as >5000 (>10,000 μM) μg/ml. What is called pIC50 is the IC50 on a negative log10 scale, so that one unit is a factor of ten. As to `COc1ccc([C@@H]2CC(=O)c3c(O)cc(O)cc3O2)cc1O` [Hesperetin], in the data set on Sindbis virus, the “IC50, inhibitory activity on Sindbis virus infection” value was 20.5 µg/mL (≈ 0.0678 mM). The pIC50 with Sindbis virus (read-out: IC50, inhibitory activity on Sindbis virus infection) was ~4.17. With `O=C1/C(=C2\Nc3ccccc3C2=O)Nc2ccccc21` [Indigo], the CC50 in “in vitro” turned out to be 917 µg/mL (≈ 3.5 mM).
